The text below walks through data of patent US20240287076A1, “COMPOUNDS FOR TARGETING DEGRADATION OF BRUTON'S TYROSINE KINASE” (BIOGEN MA INC., priority 2021, published 2024).

As a reminder, the DC50 is the concentration giving 50% degradation. High values mean a less potent degrader, low ones a more potent degrader.

This assay concerns the target T1, BTK (Homo sapiens, UniProt Q06187).
T1 construct: The GM01501.3 cell line endogenously expresses BTK with a HiBiT fusion tag via CRISPR knock-in at its C-terminal region; endogenous in cells; host or cells: GM01501.3 (GM01501 cells engineered by CRISPR knock-in of HiBiT at the BTK locus)
As to the kind of experiment: BTK degradation assay using the HiBiT Method (Nano-Glo HiBiT Lytic Assay, GM01501.3 cells). It counts as cell-based. The conditions noted are these: HiBiT Degradation on GM01501.3 BTK @ 6 hours. In a few lines:
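Degradation read-out: HiBiT luminescence after lytic reagent addition, giving DC50. Compounds dosed from 10 μM in 11 half-log steps (duplicate) onto GM01501.3 cells, whose endogenous BTK carries a C-terminal HiBiT knock-in tag; 6 h exposure, 37 °C, 5% CO2.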
(In general: With HiBiT, luminescence reflects the tagged protein that the partner subunit can reach.)

T1 sequence (Q06187 whole entry, the tested form may be a part): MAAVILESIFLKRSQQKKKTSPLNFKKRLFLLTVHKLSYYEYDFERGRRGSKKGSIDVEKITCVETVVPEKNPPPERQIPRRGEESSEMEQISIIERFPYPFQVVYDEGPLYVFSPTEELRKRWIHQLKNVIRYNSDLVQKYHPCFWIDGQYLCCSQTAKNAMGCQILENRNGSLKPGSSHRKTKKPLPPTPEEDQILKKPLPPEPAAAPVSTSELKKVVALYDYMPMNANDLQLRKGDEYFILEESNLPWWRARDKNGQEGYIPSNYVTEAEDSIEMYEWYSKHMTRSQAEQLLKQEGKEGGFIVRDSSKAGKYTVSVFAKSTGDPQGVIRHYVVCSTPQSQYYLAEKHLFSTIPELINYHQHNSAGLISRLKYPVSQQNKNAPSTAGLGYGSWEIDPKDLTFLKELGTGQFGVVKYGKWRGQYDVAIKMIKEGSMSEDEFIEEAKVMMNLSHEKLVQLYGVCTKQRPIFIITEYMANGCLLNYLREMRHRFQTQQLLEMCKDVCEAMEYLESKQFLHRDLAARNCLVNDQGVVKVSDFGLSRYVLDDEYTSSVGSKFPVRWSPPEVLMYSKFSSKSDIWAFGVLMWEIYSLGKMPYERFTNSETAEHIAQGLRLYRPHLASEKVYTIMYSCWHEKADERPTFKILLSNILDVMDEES

In the case of `Cc1cc(-c2ccnc3cc(CCCCN4CCC(c5ccc(NC6CCC(=O)NC6=O)cc5)CC4)nn23)ccc1CNC(=O)c1noc(C(C)(C)C)n1` (stereo not drawn) [Example 163, 5-tert-butyl-N-[[4-[2-[4-[4-[4-[(2,6-dioxo-3-piperidyl)amino]phenyl]-1-piperidyl]butyl]pyrazolo[1,5-a]pyrimidin-7-yl]-2-methyl-phenyl]methyl]-1,2,4-oxadiazole-3-carboxamide], the DC50 is below 100 nM.

`Cc1cc(-c2ncnn3cc(-c4ccc(CN5CCC(c6ccc(C7CCC(=O)NC7=O)cc6)CC5)cc4)cc23)ccc1CNC(=O)c1noc(C(C)(C)C)n1` (stereo not drawn) [Example 4, 5-tert-butyl-N-[[4-[6-[4-[[4-[4-(2,6-dioxo-3-piperidyl)phenyl]-1-piperidyl]methyl]phenyl]pyrrolo[2,1-f][1,2,4]triazin-4-yl]-2-methyl-phenyl]methyl]-1,2,4-oxadiazole-3-carboxamide] returned a DC50 below 100 nM. Under `Cn1nc(N2CCC(=O)NC2=O)c2ccc(C3CCN(CCOc4ccc(-c5cc6c(-c7ccc(CNC(=O)c8noc(C(C)(C)C)n8)c(F)c7)ncnn6c5)cc4)CC3)cc21` [Example 109] stands below 100 nM; under `CC(C)(C)c1nc(C(=O)NCc2ccc(-c3ncnn4cc(-c5ccc(CN6CCC(Cc7ccc(OC8CCC(=O)NC8=O)cc7)C6)cn5)cc34)cc2F)no1` (stereo not drawn) [Example 237, 5-(tert-butyl)-N-(4-(6-(5-((3-(4-((2,6-dioxopiperidin-3-yl)oxy)benzyl)pyrrolidin-1-yl)methyl)pyridin-2-yl)pyrrolo[2,1-f][1,2,4]triazin-4-yl)-2-fluorobenzyl)-1,2,4-oxadiazole-3-carboxamide], below 100 nM. Then `Cc1cc(-c2ncnn3cc(OCCCN4CCC[C@@H](c5ccc6c(N7CCC(=O)NC7=O)nn(C)c6c5)C4)cc23)ccc1CNC(=O)c1noc(C(C)(C)C)n1` (single isomer, unassigned) [Example 292], with below 100 nM; and `Cc1cc(-c2ncnn3cc(-c4ccc(CN5CCC(c6ccc(NC7CCC(=O)NC7=O)cc6)CC5)cc4)cc23)ccc1CNC(=O)CCCC(C)(C)C` (stereo not drawn) [Example 74, N-[[4-[6-[4-[[4-[4-[(2,6-dioxo-3-piperidyl)amino]phenyl]-1-piperidyl]methyl]phenyl]pyrrolo[2,1-f][1,2,4]triazin-4-yl]-2-methyl-phenyl]methyl]-5,5-dimethyl-hexanamide], with below 100 nM. Take `Cc1cc(-c2ncnn3cc(-c4ccc(CN5CCC(c6ccc(NC7CCC(=O)NC7=O)cc6)CC5)cc4)cc23)ccc1CNC(=O)c1noc(C(C)(C)C)n1` (racemic) [Example 1, 5-tert-butyl-N-[[4-[6-[4-[[4-[4-[(2,6-dioxo-3-piperidyl)amino]phenyl]-1-piperidyl]methyl]phenyl]pyrrolo[2,1-f][1,2,4]triazin-4-yl]-2-methyl-phenyl]methyl]-1,2,4-oxadiazole-3-carboxamide]: the DC50 was below 100 nM.

In turn, `Cc1cc(-c2ncnn3cc(OC4CC(CN5CCC(c6ccc7c(N8CCC(=O)NC8=O)nn(C)c7c6)CC5)C4)cc23)ccc1CNC(=O)c1noc(C(C)(C)C)n1` (stereo not drawn) [Example 289, 5-(tert-butyl)-N-(4-(6-(3-((4-(3-(2,4-dioxotetrahydropyrimidin-1(2H)-yl)-1-methyl-1H-indazol-6-yl)piperidin-1-yl)methyl)cyclobutoxy)pyrrolo[2,1-f][1,2,4]triazin-4-yl)-2-methylbenzyl)-1,2,4-oxadiazole-3-carboxamide] gave a DC50 below 100 nM. `Cc1cc(-c2ncnn3cc(-c4cccc5c(CN6CCC(c7ccc(C8CCC(=O)NC8=O)cc7)CC6)n(C)nc45)cc23)ccc1CNC(=O)c1noc(C(C)(C)C)n1` (stereo not drawn) [Example 212, 5-(tert-butyl)-N-(4-(6-(3-((4-(4-(2,6-dioxopiperidin-3-yl)phenyl)piperidin-1-yl)methyl)-2-methyl-2H-indazol-7-yl)pyrrolo[2,1-f][1,2,4]triazin-4-yl)-2-methylbenzyl)-1,2,4-oxadiazole-3-carboxamide] showed a DC50 of 100 to 500 nM. Then `Cc1cc(-c2ccnn3cc(CCCCN4CCC(c5ccc(NC6CCC(=O)NC6=O)cc5)CC4)cc23)ccc1CNC(=O)c1noc(C(C)(C)C)n1` (stereo not drawn) [Example 156, 5-tert-butyl-N-[[4-[6-[4-[4-[4-[(2,6-dioxo-3-piperidyl)amino]phenyl]-1-piperidyl]butyl]pyrrolo[1,2-b]pyridazin-4-yl]-2-methyl-phenyl]methyl]-1,2,4-oxadiazole-3-carboxamide], with below 100 nM. On to `Cc1cc(-c2ncnn3cc(-c4ccc(CN5CCC(c6ccc(C7CCC(=O)NC7=O)cc6F)CC5)cc4)cc23)ccc1CNC(=O)c1noc(C(C)(C)C)n1` (stereo not drawn) [Example 9, 5-tert-butyl-N-[[4-[6-[4-[[4-[4-(2,6-dioxo-3-piperidyl)-2-fluoro-phenyl]-1-piperidyl]methyl]phenyl]pyrrolo[2,1-f][1,2,4]triazin-4-yl]-2-methyl-phenyl]methyl]-1,2,4-oxadiazole-3-carboxamide], for which the DC50 is below 100 nM.

The compound `Cc1cc(-c2ncnn3cc(CCN4CC[C@H](c5ccc6c(N7CCC(=O)NC7=O)nn(C)c6c5)C4)cc23)ccc1CNC(=O)c1noc(C(C)(C)C)n1` (single isomer, unassigned) [Example 265] displayed a DC50 below 100 nM. Then `CC(C)(C)c1nc(C(=O)NCc2ccc(-c3ncnn4cc(CCC(F)CN5CCC(c6ccc(NC7CCC(=O)NC7=O)cc6)CC5)cc34)cc2F)no1` (stereo not drawn) [Example 170, 5-tert-butyl-N-[[4-[6-[4-[4-[4-[(2,6-dioxo-3-piperidyl)amino]phenyl]-1-piperidyl]-3-fluoro-butyl]pyrrolo[2,1-f][1,2,4]triazin-4-yl]-2-fluoro-phenyl]methyl]-1,2,4-oxadiazole-3-carboxamide], with below 100 nM; and `Cc1cc(-c2ncnn3cc(N4CCN(C(=O)CC5CCCCN5C(=O)c5ccc(OC6CCC(=O)NC6=O)cc5)CC4)cc23)ccc1CNC(=O)c1noc(C(C)(C)C)n1` (stereo not drawn) [Example 176, 5-(tert-butyl)-N-(4-(6-(4-(2-(1-(4-((2,6-dioxopiperidin-3-yl)oxy)benzoyl)piperidin-2-yl)acetyl)piperazin-1-yl)pyrrolo[2,1-f][1,2,4]triazin-4-yl)-2-methylbenzyl)-1,2,4-oxadiazole-3-carboxamide], with 100 to 500 nM; and `Cc1cc(-c2ncnn3cc(-c4ccc(CN5CCOCC(n6cc(NC7CCC(=O)NC7=O)cn6)C5)cc4)cc23)ccc1CNC(=O)c1noc(C(C)(C)C)n1` (stereo not drawn) [Example 203, 5-(tert-butyl)-N-(4-(6-(4-((6-(4-((2,6-dioxopiperidin-3-yl)amino)-1H-pyrazol-1-yl)-1,4-oxazepan-4-yl)methyl)phenyl)pyrrolo[2,1-f][1,2,4]triazin-4-yl)-2-methylbenzyl)-1,2,4-oxadiazole-3-carboxamide], with below 100 nM. Under `Cc1cc(-c2ncnn3cc(N4CCN(C(=O)C5CC6(CCCN6C(=O)c6ccc(OC7CCC(=O)NC7=O)cc6)C5)CC4)cc23)ccc1CNC(=O)c1noc(C(C)(C)C)n1` (stereo not drawn) [Example 186, 5-(tert-butyl)-N-(4-(6-(4-(5-(4-((2,6-dioxopiperidin-3-yl)oxy)benzoyl)-5-azaspiro[3.4]octane-2-carbonyl)piperazin-1-yl)pyrrolo[2,1-f][1,2,4]triazin-4-yl)-2-methylbenzyl)-1,2,4-oxadiazole-3-carboxamide] stands below 100 nM; under `Cc1cc(-c2ncnn3cc(-c4ccc(-c5n[nH]cc5CN5CCC(c6ccc(C7CCC(=O)NC7=O)cc6)CC5)s4)cc23)ccc1CNC(=O)c1noc(C(C)(C)C)n1` (stereo not drawn) [Example 220, 5-(tert-butyl)-N-(4-(6-(5-(4-((4-(4-(2,6-dioxopiperidin-3-yl)phenyl)piperidin-1-yl)methyl)-1H-pyrazol-3-yl)thiophen-2-yl)pyrrolo [2,1-f][1,2,4]triazin-4-yl)-2-methylbenzyl)-1,2,4-oxadiazole-3-carboxamide], below 100 nM.

Compound `Cc1cc(-c2ncnn3cc(-c4ccc(OCCCCN5CCC(c6ccc(NC7CCC(=O)NC7=O)cc6)CC5)cc4)cc23)ccc1CNC(=O)c1nc(C(C)(C)C)ns1` (stereo not drawn) [Example 112, 3-tert-butyl-N-[[4-[6-[4-[4-[4-[4-[(2,6-dioxo-3-piperidyl)amino]phenyl]-1-piperidyl]butoxy]phenyl]pyrrolo[2,1-f][1,2,4]triazin-4-yl]-2-methyl-phenyl]methyl]-1,2,4-thiadiazole-5-carboxamide] registered a DC50 below 100 nM.

On to `Cc1cc(-c2ncnn3cc(CCN4CCC(c5ccc(NC6CCC(=O)NC6=O)cc5)C(F)(F)C4)cc23)ccc1CNC(=O)c1noc(C(C)(C)C)n1` (stereo not drawn) [Example 275, 5-(tert-butyl)-N-(4-(6-(2-(4-(4-((2,6-dioxopiperidin-3-yl)amino)phenyl)-3,3-difluoropiperidin-1-yl)ethyl)pyrrolo[2,1-f][1,2,4]triazin-4-yl)-2-methylbenzyl)-1,2,4-oxadiazole-3-carboxamide], for which the DC50 is below 100 nM.

Take `CC(C)(C)c1nc(C(=O)NCc2ccc(-c3ncnn4cc(-c5ccc(CN6CC[C@H](c7ccc(NC8CCC(=O)NC8=O)cc7)CC67CC7)cc5)cc34)cc2F)no1` (stereo partly drawn) [Example 39, 5-tert-butyl-N-[[4-[6-[4-[[(7S)-7-[4-[(2,6-dioxo-3-piperidyl)amino]phenyl]-4-azaspiro[2.5]octan-4-yl]methyl]phenyl]pyrrolo[2,1-f][1,2,4]triazin-4-yl]-2-fluoro-phenyl]methyl]-1,2,4-oxadiazole-3-carboxamide]: the DC50 lay within 100 to 500 nM. As to `Cc1cc(-c2ncnn3cc(CCN4CCC(c5ccc(NC6CCC(=O)NC6=O)cc5)CC4)cc23)ccc1CNC(=O)c1noc(C(C)(C)C)n1` (stereo not drawn) [Example 117, 5-tert-butyl-N-[[4-[6-[2-[4-[4-[(2,6-dioxo-3-piperidyl)amino]phenyl]-1-piperidyl]ethyl]pyrrolo[2,1-f][1,2,4]triazin-4-yl]-2-methyl-phenyl]methyl]-1,2,4-oxadiazole-3-carboxamide], the DC50 is below 100 nM.
